Experiments:
Details in all cases: 100 µM substrate, 30 min, 37 °C, 0.2 µg/µL protein, LC–ITMS
[1] = target: T1, hCES2 (Homo sapiens, UniProt O00748); test: Initial activity screening with recombinant hCES2
T1 sequence (O00748 27-559): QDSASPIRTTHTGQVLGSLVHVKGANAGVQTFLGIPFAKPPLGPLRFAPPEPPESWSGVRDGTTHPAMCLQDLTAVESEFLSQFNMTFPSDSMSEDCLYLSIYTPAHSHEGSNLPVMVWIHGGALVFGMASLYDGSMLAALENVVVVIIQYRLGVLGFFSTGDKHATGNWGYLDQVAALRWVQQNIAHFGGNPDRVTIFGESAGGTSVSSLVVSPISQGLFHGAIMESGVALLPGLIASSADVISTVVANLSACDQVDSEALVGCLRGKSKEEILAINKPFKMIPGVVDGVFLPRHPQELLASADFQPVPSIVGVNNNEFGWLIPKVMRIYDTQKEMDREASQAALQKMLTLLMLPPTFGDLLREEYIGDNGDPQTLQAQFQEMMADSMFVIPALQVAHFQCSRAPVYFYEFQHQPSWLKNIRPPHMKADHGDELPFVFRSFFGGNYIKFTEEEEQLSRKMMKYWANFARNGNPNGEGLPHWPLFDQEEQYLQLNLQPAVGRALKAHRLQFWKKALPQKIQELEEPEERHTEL

[2] = target: T2, hCES1b (Homo sapiens, UniProt P23141); test: Initial activity screening with recombinant hCES1b
T2 sequence (P23141 18-567): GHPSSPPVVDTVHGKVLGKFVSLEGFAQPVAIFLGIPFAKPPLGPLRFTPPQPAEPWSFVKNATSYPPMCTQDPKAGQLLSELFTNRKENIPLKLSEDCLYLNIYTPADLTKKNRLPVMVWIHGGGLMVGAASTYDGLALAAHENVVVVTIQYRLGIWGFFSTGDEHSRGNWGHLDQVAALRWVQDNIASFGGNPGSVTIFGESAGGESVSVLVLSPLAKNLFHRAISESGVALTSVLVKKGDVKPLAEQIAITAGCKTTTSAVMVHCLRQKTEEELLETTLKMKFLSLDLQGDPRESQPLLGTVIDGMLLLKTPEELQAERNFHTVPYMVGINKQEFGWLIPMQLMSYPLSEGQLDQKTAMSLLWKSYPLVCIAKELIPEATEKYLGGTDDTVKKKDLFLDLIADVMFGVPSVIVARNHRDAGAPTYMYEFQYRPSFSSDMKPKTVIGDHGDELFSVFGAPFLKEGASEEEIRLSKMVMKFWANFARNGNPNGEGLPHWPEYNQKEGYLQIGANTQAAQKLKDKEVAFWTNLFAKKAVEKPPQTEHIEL

[3] = target: T3, hCES1c (Homo sapiens, UniProt P23141); test: Initial activity screening with recombinant hCES1c
T3 sequence (P23141 18-566 isoform P23141-3 limits assumed): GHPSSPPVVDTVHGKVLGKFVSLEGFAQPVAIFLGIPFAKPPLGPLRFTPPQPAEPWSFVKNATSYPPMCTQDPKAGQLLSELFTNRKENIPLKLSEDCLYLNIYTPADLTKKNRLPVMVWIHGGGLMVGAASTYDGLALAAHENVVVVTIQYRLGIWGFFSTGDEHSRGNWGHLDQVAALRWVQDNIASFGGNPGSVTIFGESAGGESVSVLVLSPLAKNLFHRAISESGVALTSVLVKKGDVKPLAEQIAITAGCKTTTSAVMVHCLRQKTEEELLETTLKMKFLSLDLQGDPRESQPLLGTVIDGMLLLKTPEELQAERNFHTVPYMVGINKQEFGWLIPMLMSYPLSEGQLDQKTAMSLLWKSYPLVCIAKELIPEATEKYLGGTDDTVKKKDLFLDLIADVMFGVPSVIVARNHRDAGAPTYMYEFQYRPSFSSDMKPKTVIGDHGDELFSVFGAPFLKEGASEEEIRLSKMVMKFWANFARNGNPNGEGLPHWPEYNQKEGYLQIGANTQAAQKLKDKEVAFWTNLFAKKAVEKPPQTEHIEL

CC(C)[C@H](NC(=O)c1cc(-c2ccc(F)cc2)nn1CCCCCF)C(N)=O [3,5-AB-5F-FUPPYCA, N-[(1S)-1-(aminocarbonyl)-2-methylpropyl]-1-(5-fluoropentyl)-3-(4-fluorophenyl)-1H-pyrazole-5-carboxamide]
−: Hydrolysis of carboxamide linker, hCES2 [1] | Hydrolysis of carboxamide/ester in head group, hCES2 [1] | Hydrolysis of carboxamide linker, hCES1b [2] | Hydrolysis of carboxamide/ester in head group, hCES1b [2] | Hydrolysis of carboxamide linker, hCES1c [3] | Hydrolysis of carboxamide/ester in head group, hCES1c [3]

O=C(NC12CC3CC(CC(C3)C1)C2)c1nn(CC2CCCCC2)c2ccccc12 [A-CHMINACA, 1-cyclohexylmethyl-N-tricyclo[3.3.1.13,7]dec-1-yl-1H-indazole-3-carboxamide]
−: Hydrolysis of carboxamide linker, hCES2 [1] | Hydrolysis of carboxamide linker, hCES1b [2] | Hydrolysis of carboxamide linker, hCES1c [3]

CC(C)[C@H](NC(=O)c1cn(CCCCCF)c2ncccc12)C(N)=O [AB-5F-P7AICA, (S)-N-(1-amino-3-methyl-1-oxobutan-2-yl)-1-(5-fluoropentyl)-1H-pyrrolo[2,3-b]pyridine-3-carboxamide]
−: Hydrolysis of carboxamide linker, hCES2 [1] | Hydrolysis of carboxamide/ester in head group, hCES2 [1] | Hydrolysis of carboxamide linker, hCES1b [2] | Hydrolysis of carboxamide/ester in head group, hCES1b [2] | Hydrolysis of carboxamide linker, hCES1c [3] | Hydrolysis of carboxamide/ester in head group, hCES1c [3]

CC(C)(C)C(NC(=O)c1nn(CC2CCCCC2)c2ccccc12)C(=O)O (centres unmarked) [DMBA-CHMINACA, 2-[1-(cyclohexylmethyl)-1H-indazole-3-carboxamido]-3,3-dimethylbutanoic acid]
−: Hydrolysis of carboxamide linker, hCES2 [1] | Hydrolysis of carboxamide linker, hCES1b [2] | Hydrolysis of carboxamide linker, hCES1c [3]

CC(C)C(NC(=O)c1nn(CC2CCCCC2)c2ccccc12)C(=O)O (centres unmarked) [MBA-CHMINACA, 2-[1-(cyclohexylmethyl)-1H-indazole-3-carboxamido]-3-methylbutanoic acid]
−: Hydrolysis of carboxamide linker, hCES2 [1] | Hydrolysis of carboxamide linker, hCES1b [2] | Hydrolysis of carboxamide linker, hCES1c [3]

COC(=O)[C@@H](NC(=O)c1cn(CCCCCF)c2ccccc12)C(C)(C)C [MDMB-5F-PICA, methyl (2S)-2-{[1-(5-fluoropentyl)-1H-indole-3-carbonyl]amino}-3,3-dimethylbutanoate]
−: Hydrolysis of carboxamide linker, hCES2 [1] | Hydrolysis of carboxamide linker, hCES1b [2] | Hydrolysis of carboxamide/ester in head group, hCES1b [2] | Hydrolysis of carboxamide linker, hCES1c [3] | Hydrolysis of carboxamide/ester in head group, hCES1c [3]
